Literature values in publication PMC13130965, “An Integrated Approach Combining Regulatory Tests in tg(cyp19a1b:GFP) Zebrafish Embryos to Assess Toxicity, Developmental Effects, and Estrogenic Activity of Chemicals: A Case Study with Bisphenol A Substitutes” (Environmental Science & Technology, 2026).
In brackets after ≈: the same amount, converted by molar mass.

Tested on: Fathead minnow
Conditions: 4-days exposure, ref Corrales et al. (2017); cited from earlier work

CC(C)(c1ccc(O)cc1)c1ccc(O)cc1 [BPA, 4-[2-(4-hydroxyphenyl)propan-2-yl] phenol]
LC50(96h): 4.2 µg/mL (≈ 18.4 µM)
